“Also recorded” adds a separate entry of the source. Bridge positions count the residues as written; N and C are the ends. Square brackets hold non-standard residues; d marks the D form. Triazole bridges read from a SMILES are 1,4-linked. Peptide text beside a SMILES is read from it. * marks the point of attachment. ξ: configuration not given here. Biotinyl(3aR,4R,6aS) = O=C1N[C@@H]2[C@@H](CS[C@@H]2CCCCC(=O)*)N1; X1 = O=C(CCCCC1SC[C@H]2NC(=O)N[C@@H]12)NCCCOCCOCCOCCCN*; Lys(N3) = [N-]=[N+]=NCCCC[C@H](N)C(=O)O; dThr(3ξ) = CC(O)[C@@H](N)C(=O)O; Thr(3ξ) = CC(O)[C@H](N)C(=O)O; AEEEA = NCCOCCOCCOCC(=O)O; Pra = C#CC[C@H](N)C(=O)O
Assays:
trypsin = assay: Trypsin protease digestion, analytical HPLC; format: in vitro ADME; conditions: trypsin 1 h at 37° C., analytical HPLC at 215 nm
Description: Bi-LF Biotin-PEG3-Cy(RSYNKX1X2) (SEQ ID NO:102)-PEG3-Cy(RRATSX1X2) (SEQ ID NO:83) (X1=azidolysine and X2=propargylglycine) was incubated with trypsin to study its susceptibility to protease digestion. Trypsin can cleave peptides and proteins on the C-terminal side of lysine and arginine L-amino acids. For this assay, test compounds were treated with trypsin protease (1 h at 37° C.) or left untreated as a control. In an Eppendorf tube, 4 μL of trypsin solution (10 μg/mL in 1 mM HCl) and 80 pmol of biligand were added to TBS for a final volume of 20 μL. The solution was incubated for 1 h at 37° C., and then further diluted with 80 μL TBS. 50 μL of each sample was injected into a Dionex Ultimate 3000 series analytical HPLC fitted with a Phenomenex Luna-C18 column, and eluted with a gradient of 10%-62% acetonitrile in 0.1% TFA (v/v) in water over 45 min. The samples were monitored at 215 nm.

IL-17F protein [1] = molecular target: T1, IL-17F protein (Homo sapiens, UniProt Q96PD4); assay: IL-17F binding in a background of human serum, surface-immobilized ligand; conditions: for IL-17F binding efficiency in human serum: up to 10% (v/v) serum
T1 construct: His tag
T1 sequence (Q96PD4 31-163): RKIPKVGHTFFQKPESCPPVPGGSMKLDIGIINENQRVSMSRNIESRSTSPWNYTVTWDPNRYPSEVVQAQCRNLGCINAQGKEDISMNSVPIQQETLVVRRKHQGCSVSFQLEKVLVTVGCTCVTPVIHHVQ
Source text: Binding to IL-17F in 25% (v/v) serum is also detectable.
Target binding in biologically complex samples was interrogated by contacting surface-immobilized macrocycles with IL-17F protein in a background of human serum.

[2] = molecular target: T2, full-length His-tagged IL-17F protein (Homo sapiens, UniProt Q96PD4); assay: Sandwich ELISA: IL-17F captured by ligand immobilized on NeutrAvidin plate; format: binding; conditions: IL-17F
T2 construct: Full-length His-tagged IL-17F protein (ab167911, Abcam) was serially diluted in Wash Buffer; purchased Abcam ab167911
T2 sequence (Q96PD4 31-163): T1 sequence (Q96PD4 31-163)
Description: Sandwich ELISA. A black 96-well NeutrAvidin Coated High Binding Capacity plate (15510, Pierce) was coated with 2 μM macrocyclic peptide ligand in TBS (25 mM Tris-HCl, 150 mM NaCl, pH 7.6) for 2 h at room temperature. Biotinylated monoclonal anti-IL17F (TA319597, Origene) was coated at 4 μg/mL in TBS as a control. The plate was aspirated and then washed with TBS (5×) and Wash Buffer (0.05% (v/v) Tween-20 in PBS, 1×). Full-length His-tagged IL-17F protein (ab167911, Abcam) was serially diluted in Wash Buffer (from 800 to 0 nM) and incubated in the designated microwells for 90 min at room temperature. Microwells were aspirated and subsequently washed with Wash Buffer (10×). To detect the bound IL-17F protein, Alkaline Phosphatase (AP)-conjugated Anti-6X His tag® antibody [HIS-1] (ab49746, Abcam) was prepared at 1:10,000 dilution and added to the microwells for 1 h at room temperature. The plate was aspirated and washed with Wash Buffer (11×). AttoPhos® AP Fluorescent Substrate System (S1000, Promega) was employed to develop the microwells. Using an excitation wavelength of 430 nm, fluorescent emission at 535 nm was recorded by Beckman Coulter DTX880 photometer. Titration curves were fit using a four-parameter regression curve fitting program (Origin 8.5) to determine EC50 values.
(§1) For these assays, a dilution series of full-length His-tagged IL-17F protein was captured using the macrocyclic peptide ligands immobilized on a NeutrAvidin-coated plate.
Sandwich ELISA. These assays were performed using the same protocol that was used to evaluate the IL-17F Epitope1 targeted ligands.
as §1

[3] = molecular target: T3, His-tagged IL-17F Epitope1 (C48S) (Homo sapiens, UniProt Q96PD4); assay: Assay to determine orientation of macrocycle binding to IL-17F Epitope1 (point ELISA with His-tagged epitopes); conditions: epitope 2 μM, unscrambled
T3 construct: made in house; host or cells: chemical peptide synthesis
Description: (§2) Assay to determine orientation of macrocycle binding to IL-17F Epitope1. A black 96-well NeutrAvidin Coated High Binding Capacity plate (15510, Pierce) was coated with 2 μM macrocyclic peptide ligand in TBS (pH 7.6) for 2 h at room temperature. Biotinylated monoclonal anti-IL17F (TA319597, Origene) was coated at 4 μg/mL in TBS as a control. The plate was aspirated and then washed with TBS (5×) and Wash Buffer (0.05% (v/v) Tween-20 in PBS, 1×). Chemically synthesized His-tagged IL-17F epitopes were prepared at 2 μM in Wash Buffer and incubated in the designated microwells for 90 min at room temperature. Wash Buffer without epitope was added as a control. Microwells were aspirated and subsequently washed with Wash Buffer (10×). To detect the bound IL-17F epitopes, Alkaline Phosphatase (AP)-conjugated Anti-6X His tag® antibody [HIS-1] (ab49746, Abcam) was prepared at 1:10,000 dilution and added to the microwells for 1 h at room temperature. The plate was aspirated and washed with Wash Buffer (11×). AttoPhos® AP Fluorescent Substrate System (S1000, Promega) was employed to develop the microwells. Using an excitation wavelength of 430 nm, fluorescent emission at 535 nm was recorded by Beckman Coulter DTX880 photometer. Data are shown after subtraction of the no-epitope background.
(§3) For this experiment, the IL-17F Epitope1 was re-synthesized with a His6 assay handle and C48S substitution instead of a click handle. Two additional His-tagged IL-17F epitopes were synthesized to contain strategic scrambling of the sequences either N-terminal or C-terminal to C48S (scrambled residues are shown in italics): • 1) His6-PEG3-[…] (SEQ ID NO:39); • 2) His6-PEG3-[…] (scrambled C-terminal to click handle; SEQ ID NO:40); • 3) His6-PEG3-[…] (scrambled N-terminal to click handle; SEQ ID NO:41).
(§4) In anticipation of forming a biligand with LF2 (SEQ ID NO: 28), it was important to gain insight on whether LF1 (SEQ ID NO:9) preferentially binds to the N- or C-terminus of Epitope1. Therefore, two His-tagged IL-17F epitopes were generated, scrambling the sequence either N-terminal or C-terminal to the location of the azide click handle. His6 assay handle and C48S substitution instead of a click handle. The scrambled amino acids are shown in italics. MALDI-TOF MS (m/z): calculated for C116H163N37O31 (M+H) 2571.23; found 2571.57.

[4] = system: His-tagged IL-17F Epitope1 (C48S); assay: as above
Description: as §2, §3, §4

IL-17F protein [5] = molecular target: T1, IL-17F protein; assay: Fluorescence polarization titration in solution; format: binding
Description: The bonding affinities of the macrocycles were tested in solution by titrating the recombinant human IL-17F protein against fluorescein 5-isothiocyanate (5-FITC)-tagged macrocycles by fluorescence polarization. […] The structure of LA3 (SEQ ID NO:44), the lead macrocycle developed against IL-17A Epitope3, is shown below (X=PEG3-biotin). MALDI-TOF MS (m/z): calcd. for C62H98N22O13S (M+H) 1391.74; found 1392.36.

| binding to IL-17F in human serum (IL-17F protein [1]; 25% (v/v) serum) | bivalent interaction stronger than the other biligands [2] | improvement in affinity relative to the individual PCC macrocyclic ligands [2] [fold] | binding affinity compared, in words ([2]; sandwich ELISA) | Structure (SMILES) | susceptibility to trypsin digestion (trypsin) | IL-17F binding efficiency in human serum (IL-17F protein [1]) | ELISA signal for His-tagged IL-17F Epitope1 (C48S) [3] | ELISA signal for epitope scrambled C-terminal to click handle ([4]; epitope 2 μM) | binding to epitope scrambled N-terminal to click handle ([4]; epitope 2 μM) | preferred binding region within IL-17F Epitope1 ([4]; scrambled N- or C-terminus peptides) | Kd (IL-17F protein [5]; 5-FITC-tagged macrocycles, in solution) [µM] | standard Gibbs free energy change (ΔG°=RTlnKD) of binding to IL-17F (IL-17F protein [5]; 25° C.) [kcal/mol] |
| --- | --- | --- | --- | --- | --- | --- | --- | --- | --- | --- | --- | --- |
| detectable | at least 16 times | > 100 | – | CC(O)[C@@H]1NC(=O)[C@H](C)NC(=O)[C@H](CCCNC(=N)N)NC(=O)[C@H](CCCNC(=N)N)NC(=O)[C@@H](NC(=O)COCCOCCOCCNC(=O)[C@@H]2CCCCn3cc(nn3)C[C@H](NC(=O)COCCOCCOCCNC(=O)CCCC[C@H]3SC[C@H]4NC(=O)N[C@H]43)C(=O)N[C@@H](CCCNC(=N)N)C(=O)N[C@@H](CO)C(=O)N[C@@H](Cc3ccc(O)cc3)C(=O)N[C@@H](CC(N)=O)C(=O)N[C@@H](CCCCN)C(=O)N2)Cc2cn(nn2)CCCC[C@@H](C(N)=O)NC(=O)[C@H](CO)NC1=O (stereo partly drawn) [Biotin-PEG3-Cy(RSYNKX1X2)-PEG3-Cy(RRATSX1X2)] ({Biotinyl(3aR,4R,6aS)-AEEEA}-[Pra]RSYNK[Lys(N3)][AEEEA][Pra]RRA[Thr(3ξ)]S[Lys(N3)]-NH2; triazole 1-7, 9-15) | trypsin digestion indeed occurred | no reduction in binding efficiency | – | – | – | – | – | – |
| – | – | – | slightly weaker binding | CC(O)[C@H]1NC(=O)[C@@H](C)NC(=O)[C@@H](CCCNC(=N)N)NC(=O)[C@@H](CCCNC(=N)N)NC(=O)[C@@H](NC(=O)COCCOCCOCCNC(=O)[C@@H]2CCCCn3cc(nn3)C[C@H](NC(=O)COCCOCCOCCNC(=O)CCCC[C@H]3SC[C@H]4NC(=O)N[C@H]43)C(=O)N[C@H](CCCNC(=N)N)C(=O)N[C@H](CO)C(=O)N[C@H](Cc3ccc(O)cc3)C(=O)N[C@H](CC(N)=O)C(=O)N[C@H](CCCCN)C(=O)N2)Cc2cn(nn2)CCCC[C@@H](C(N)=O)NC(=O)[C@@H](CO)NC1=O (stereo partly drawn) [Bi-LG, Biotin-PEG3-Cy(rsynkX1X2)-PEG3-Cy(rratsX1X2)] ({Biotinyl(3aR,4R,6aS)-AEEEA}-[Pra][dR][dS][dY][dN][dK][Lys(N3)][AEEEA][Pra][dR][dR][dA][dThr(3ξ)][dS][Lys(N3)]-NH2; triazole 1-7, 9-15) | resistance to trypsin digestion; also recorded: resistant to trypsin digestion | – | – | – | – | – | – | – |
| – | – | – | – | CC(O)[C@@H]1NC(=O)[C@H](C)NC(=O)[C@H](CCCNC(=N)N)NC(=O)[C@H](CCCNC(=N)N)NC(=O)[C@@H](N)Cc2cn(nn2)CCCC[C@@H](C(=O)NCCCOCCOCCOCCCNC(=O)CCCCC2SC[C@H]3NC(=O)N[C@@H]23)NC(=O)[C@H](CO)NC1=O (some centres unmarked) [Cy(RRATSX1X2), Cy(RRATSX1X2)-PEG3-biotin] (H-[Pra]RRA[Thr(3ξ)]S[Lys(N3)]-X1; triazole 1-7) | – | no reduction in IL-17F binding efficiency | positive ELISA signals | positive ELISA signals | Binding was destroyed | preferentially bind to the N-terminal portion of Epitope1 | 0.05 ± 0.015 | -9.9 |
